# Assay results taken from patent US4515793A, “Phenylpiperazines which are useful in the treatment of schistosomiasis” (Edna McConnell Clark Foundation, priority 1983, dated 1985).
# Where “and” joins values, the source holds several entries; their conditions need not be identical. Equal entries are not always repeated. Where two headings read alike, the source gives them in different places.
# How the values were obtained:
# S. mansoni [1] = assay: antischistosomal activity in mice (live worm burden, single oral dose); format: in vivo, S. mansoni (host: CD1 white female mice); conditions: Schistosoma mansoni, read-out: % Reduction Live Worm Burden
# Method: Tests were conducted to determine the antischistosomal activity in mice and monkeys. The results of the mice tests are reported in Tables 1 to 4 along with the chemical identifications of the compounds synthesized and tested.
# The mice tests were conducted as follows:
# A. Preinfection Procedures: Purina Laboratory chow (Ralston-Purina) and water were given ad libitum. All mice were housed in hanging stainless steel cages, without bedding, five per cage. They were kept in a ward with an ambient temperature of 75° F. and a relative humidity of 50-55%. Therapeutic treatment was given on Day 40 post-infection.
# B. Experimental Procedures: CD1 white female mice were exposed by the tail immersion method for 30 minutes to 80 individually counted S. mansoni cercariae (WRAIR laboratory strain). The cercariae were obtained from pools of no less than 25 Biophalaria glabrata snails. Each experiment consisted of 118 mice divided into infected/water treated and infected/vehicle-treated controls, and infected/drug-treated groups (two dose levels) for six compounds. Groups of 12 mice each were treated with a compound synthesized and provided by the Warner-Lambert Company, Ann Arbor, Mich. at two dose levels. At the same time, five mice were sacrificed to establish worm burdens as infection controls. Three weeks after treatment, all remaining mice were sacrificed and perfused. Gross pathology (liver and intestines) was noted and graded (0 to +3). Worm burdens were determined and the sex of the worms recorded. Following perfusions the liver and intestines were removed and examined for the presence of […] or dead worms. […] Drugs were administered orally in Emulphor EL.
# C. Drug Treatment: Treatment consisted of a single oral dose. Each drug was give initially at two dose levels, 40 mg/kg and 125 mg/kg, SID×1.
# D. Criteria Used to Evaluate Therapeutic Effectiveness:
# Evaluation of activity was determined by examination of the animals at 23 to 28 days after treatment. The schistosomes remaining alive after treatment were counted in the perfusates of the hepatic portal system and in press preparation of the livers. In the same preparations, the relative numbers of dead and/or encapsulated (i.e., worms may or may not be dead) parasites and the relative degree of pathology were ascertained. The efficacy of each treatment was that percentage of the control infection represented by the difference between numbers of parasites recovered from control (H2 O+vehicle) and treated animals. Thus, % efficacy is: [formula]
# S. mansoni [2] = assay: antischistosomal activity in Cebus apella monkeys treated orally; format: in vivo, S. mansoni (host: Cebus apella monkeys); conditions: four equal doses over two days, oral; for Total Normal Worms at Necropsy: two values given, not assigned to the doses
# [3] = 40 mg/kg, single oral dose, mice
# [4] = 125 mg/kg, single oral dose, mice
# [5] = single oral dose, mice (footnote, 125 mg/kg column)
SMILES,inhibition in vivo at 40 mg/kg (S. mansoni [1]; [3]) [%],inhibition in vivo at 125 mg/kg (S. mansoni [1]; [4]) [%],other results
O=C(CN1CCN(c2ccc(CO)c(Cl)c2)CC1)c1cc(Cl)c(Cl)cc1Cl [compound 13],86,98,"inhibition in vivo at 20 mg/kg (S. mansoni [1]; single oral dose, mice): 53%"
O=C(CN1CCN(c2ccc(CO)c(Cl)c2)CC1)c1ccc(C(F)(F)F)cc1 [compound 15],43,79,–
O=C(CN1CCN(c2ccc(CO)c(Cl)c2)CC1)c1cc(Cl)cc(Cl)c1 [compound 16],64,89,–
Cc1cc(C)c(C(=O)CN2CCN(c3ccc(CO)c(Cl)c3)CC2)cc1C [compound 17],29,–,inhibition in vivo at 160 mg/kg (S. mansoni [1]; [5]): 71%
O=C(CN1CCN(c2ccc(CO)c(Cl)c2)CC1)c1ccc(Cl)cc1O [compound 18],5,–,inhibition in vivo at 160 mg/kg (S. mansoni [1]; [5]): 26%
O=C(CN1CCN(c2ccc(CO)c(Cl)c2)CC1)c1ccc2ccccc2c1 [compound 19],-37,17,–
O=C(CN1CCN(c2ccc(CO)c(Cl)c2)CC1)c1cc(Cl)ccc1Cl [compound 20],65,–,"inhibition in vivo at 20 mg/kg (S. mansoni [1]; single oral dose, mice): 72%; inhibition in vivo at 160 mg/kg (S. mansoni [1]; [5]): 99%"
Cc1cc(C)c(C(=O)CN2CCN(c3ccc(CO)c(Cl)c3)CC2)c(C)c1 [compound 21],27,78,–
O=C1c2ccccc2CCC1N1CCN(c2ccc(CO)c(Cl)c2)CC1 (stereo not drawn) [compound 22],–,–,inhibition in vivo at 40 mg/kg (S. mansoni [1]): 73%; inhibition in vivo at 125 mg/kg (S. mansoni [1]): 87%
N#Cc1ccc(C(=O)CN2CCN(c3ccc(CO)c(Cl)c3)CC2)cc1 [compound 23],40,90,–
O=C(CN1CCN(c2ccc(CO)c(Cl)c2)CC1)c1cccc2ccccc12 [compound 24],3,64,–
Nc1cc(C(=O)CN2CCN(c3ccc(CO)c(Cl)c3)CC2)ccc1Cl [compound 26],-12,45,–
O=C(CN1CCN(c2ccc(CO)c(Cl)c2)CC1)c1cccc(Cl)c1 [compound 27],64,83,–
O=C(CCN1CCN(c2ccc(CO)c(Cl)c2)CC1)c1ccccc1 [compound 29],69,89,–
Cc1ccc(C(=O)CCN2CCN(c3ccc(CO)c(Cl)c3)CC2)cc1 [compound 30],75,96,–
O=C(CCN1CCN(c2ccc(CO)c(Cl)c2)CC1)c1ccc(C2CCCCC2)cc1 [compound 33],79,93,–
COc1ccc(C(=O)CCN2CCN(c3ccc(CO)c(Cl)c3)CC2)cc1 [compound 34],39,93,–
O=C(CCN1CCN(c2ccc(CO)c(Cl)c2)CC1)c1ccc2ccccc2c1 [compound 36],82,95,"inhibition in vivo at 20 mg/kg (S. mansoni [1]; single oral dose, mice): 75%"
C[S+]([O-])c1ccc(C(=O)CCN2CCN(c3ccc(CO)c(Cl)c3)CC2)cc1 (stereo not drawn) [compound 38],73,91,–

SMILES,inhibition in vivo at 40 mg/kg (S. mansoni [1]; [3]) [%],inhibition in vivo at 125 mg/kg (S. mansoni [1]; [4]) [%],other results
O=C(CCN1CCN(c2ccc(CO)c(Cl)c2)CC1)c1ccc(Cl)cc1Cl [compound 39],86,94,"inhibition in vivo at 20 mg/kg (S. mansoni [1]; single oral dose, mice): 70%"
O=C(CCN1CCN(c2ccc(CO)c(Cl)c2)CC1)c1ccc(F)cc1F [compound 40],86,99,"inhibition in vivo at 20 mg/kg (S. mansoni [1]; single oral dose, mice): 71%"
O=C(CCN1CCN(c2ccc(CO)c(Cl)c2)CC1)c1ccc(Cl)c(Cl)c1Cl [compound 41],83,96,"inhibition in vivo at 20 mg/kg (S. mansoni [1]; single oral dose, mice): 82%"
O=C(CCN1CCN(c2ccc(CO)c(Cl)c2)CC1)c1ccc(Br)cc1 [compound 42],84,98,"inhibition in vivo at 20 mg/kg (S. mansoni [1]; single oral dose, mice): 82%"
O=C(CCN1CCN(c2ccc(CO)c(Cl)c2)CC1)c1cc(Cl)ccc1Cl [compound 43],80,98,"inhibition in vivo at 20 mg/kg (S. mansoni [1]; single oral dose, mice): 84%"
O=C(CCN1CCN(c2ccc(CO)c(Cl)c2)CC1)c1ccc(-c2ccccc2)cc1 [compound 44],89,97,"inhibition in vivo at 20 mg/kg (S. mansoni [1]; single oral dose, mice): 69%"
O=C(CN1CCN(c2ccc(CO)c(Cl)c2)CC1)c1cccs1 [compound 45],10,68,–
O=C(CN1CCN(c2ccc(CO)c(Cl)c2)CC1)c1ccco1 [compound 46],–,–,"inhibition in vivo at 50 mg/kg (S. mansoni [1]; 50 mg/kg, single oral dose, mice (footnote, 40 mg/kg)): 31%; inhibition in vivo at 156 mg/kg (S. mansoni [1]; 156 mg/kg, single oral dose, mice (footnote, 125 mg/kg column)): 83%"
O=C(CN1CCN(c2ccc(CO)c(Cl)c2)CC1)c1ccc(Br)s1 [compound 47],35,93,–
O=C(CN1CCN(c2ccc(CO)c(Cl)c2)CC1)c1ccc(I)s1 [compound 48],-20,30,–
Cc1ccsc1C(=O)CN1CCN(c2ccc(CO)c(Cl)c2)CC1 [compound 50],-12,28,–
O=C(CN1CCN(c2ccc(CO)c(Cl)c2)CC1)c1ccsc1 [compound 51],-6,83,–
Cc1csc(C(=O)CN2CCN(c3ccc(CO)c(Cl)c3)CC2)c1 [compound 52],25,69,–
O=C(CN1CCN(c2ccc(CO)c(Cl)c2)CC1)c1cc(Cl)sc1Cl [compound 54],69,83,–
O=C(CN1CCN(c2ccc(CO)c(Cl)c2)CC1)c1ccc2c(c1)Sc1ccccc1S2 [compound 55],54,68,–
O=C(CN1CCN(c2ccc(CO)c(Cl)c2)CC1)c1ccc2sc3ccccc3c2c1 [compound 56],51,77,–
Cc1ccc(C(=O)CCCN2CCN(c3ccc(CO)c(Cl)c3)CC2)cc1C [compound 60],67,88,–
O=C(CCN1CCN(c2ccc(CO)c(Cl)c2)CC1)c1ccc(Cl)cc1 [drawing 32],–,–,"% Reduction Live Worm Burden at Necropsy (S. mansoni [2]; 100 mg/kg): 93% and 87%; Total Live Worms at Necropsy (S. mansoni [2]; 100 mg/kg): 15 and 27; % Reduction Live Worm Burden at Necropsy (S. mansoni [2]; 200 mg/kg): 100% and 96%; % Reduction Live Worm Burden at Necropsy (S. mansoni [2]; 400 mg/kg): 97% and 95%; Total Live Worms at Necropsy (S. mansoni [2]; 400 mg/kg): 6 and 11; Total Normal Worms at Necropsy (S. mansoni [2]): 0; Fecal Egg Count (S. mansoni [2]; two values printed for six animals (400, 200, 100 mg/kg), not assigned): 0"
O=C(CN1CCN(c2ccc(CO)c(Cl)c2)CC1)c1ccc(Cl)c(Cl)c1Cl [drawing 33],–,–,% Reduction Live Worm Burden at Necropsy (S. mansoni [2]; 200 mg/kg): 85% and 83%; Fecal Egg Count (S. mansoni [2]; 200 mg/kg): 0; % Reduction Live Worm Burden at Necropsy (S. mansoni [2]; 400 mg/kg): 99% and 98%; Fecal Egg Count (S. mansoni [2]; 400 mg/kg): 0; Total Normal Worms at Necropsy (S. mansoni [2]): 0
